# What was measured:
# [1] = test system: Proteus vulgaris IFO 3045; assay: Antibacterial spectrum, agar plate dilution method; type: cell-based; conditions: IFO3045, 0.5% peptone agar, read-out: Minimum inhibitory concentration
# [2] = test system: Mycobacterium smegmatis ATCC 607; assay: Antibacterial spectrum, agar plate dilution method; type: cell-based; conditions: Mycolicibacterium smegmatis, ATCC607, 0.5% peptone agar, read-out: Minimum inhibitory concentration
# [3] = test system: Bacillus subtilis PCI 219; assay: Antibacterial spectrum, agar plate dilution method; type: cell-based; conditions: PCI219, 0.5% peptone agar, read-out: Minimum inhibitory concentration
# [4] = test system: Bacillus megaterium ATCC 14945; assay: Antibacterial spectrum, agar plate dilution method; type: cell-based; conditions: Priestia megaterium, ATCC14945, 0.5% peptone agar, read-out: Minimum inhibitory concentration
# [5] = test system: Proteus mirabilis IFO 3849; assay: Antibacterial spectrum, agar plate dilution method; type: cell-based; conditions: IFO3849, 0.5% peptone agar, read-out: Minimum inhibitory concentration
# [6] = test system: gram-positive bacteria; assay: Antibacterial spectrum, summary in words; type: cell-based; conditions: S. aureus FDA 209P, Bacillus including B. subtilis PCI 219 and B. cereus IAM 1072, Micrococcus flavus ATCC 10240
# [7] = test system: Candida albicans NIH 3147; assay: Antibacterial spectrum, agar plate dilution method; type: cell-based; conditions: NIH3147, 0.5% peptone agar, read-out: Minimum inhibitory concentration
# [8] = test system: Proteus morganii IFO 3168; assay: Antibacterial spectrum, agar plate dilution method; type: cell-based; conditions: Morganella morganii, IFO3168, 0.5% peptone agar, read-out: Minimum inhibitory concentration
# [9] = test system: Pseudomonas aernginosa IFO 3445; assay: Antibacterial spectrum, agar plate dilution method; type: cell-based; conditions: IFO3445, 0.5% peptone agar, read-out: Minimum inhibitory concentration
# [10] = test system: Serratia marcescens GM 6484; assay: Antibacterial spectrum, agar plate dilution method; type: cell-based; conditions: GM6484, 0.5% peptone agar, read-out: Minimum inhibitory concentration
# [11] = test system: Bacillus licheniformis IFO 12107; assay: Antibacterial spectrum, agar plate dilution method; type: cell-based; conditions: IFO12107, 0.5% peptone agar, read-out: Minimum inhibitory concentration
# [12] = test system: gram-negative bacteria; assay: Antibacterial spectrum, summary in words; type: cell-based; conditions: agar plate dilution method
# [13] = test system: Klebsiella pneumoniae PCI 602; assay: Antibacterial spectrum, agar plate dilution method; type: cell-based; conditions: PCI602, 0.5% peptone agar, read-out: Minimum inhibitory concentration
# [14] = test system: Micrococcus flavus ATCC 10240; assay: Antibacterial spectrum, agar plate dilution method; type: cell-based; conditions: ATCC10240, 0.5% peptone agar, read-out: Minimum inhibitory concentration
# [15] = test system: Staphylococcus aureus EDA 209P; assay: Antibacterial spectrum, agar plate dilution method; type: cell-based; conditions: 0.5% peptone agar, read-out: Minimum inhibitory concentration
# [16] = test system: Salmonella paratyphi 1015 (MS-1); assay: Antibacterial spectrum, agar plate dilution method; type: cell-based; conditions: Salmonella enterica, read-out: Minimum inhibitory concentration
# [17] = test system: Salmonella typhi 901 (MS-1); assay: Antibacterial spectrum, agar plate dilution method; type: cell-based; conditions: Salmonella enterica, read-out: Minimum inhibitory concentration
# [18] = test system: Bacillus cereus IAM 1072; assay: Antibacterial spectrum, agar plate dilution method; type: cell-based; conditions: IAM1072, 0.5% peptone agar, read-out: Minimum inhibitory concentration
# [19] = Acute toxicity on mice; type: in vivo
# [20] = test system: herpes simplex virus-I (HSV-I); assay: Antiviral activity, cytopathic effect of HSV-I on Vero cells; type: cell-based
# Description: A medium containing a definite amount of NK84-0218 and herpes simplex virus-I (HSV-I) 5-10 TC ID50 are added onto a single layer of vero cells in a microplate having 96 wells and cultured in a 5% by volume carbon dioxide incubator at 37° C. for 96 to 120 hours. Then the antiviral activity of the test substance is determined by microscopically observing the cytopathic effect (CPE) of the HSV-I on the Vero cells. The inhibition is taken as effective when no CPE is observed in a well. For example, when CPE is observed in one well among ten at the same concentration, the inhibition ratio is 90%.
# [21] = test system: Escherichia coli NIHJ; assay: Antibacterial spectrum, agar plate dilution method; type: cell-based; conditions: 0.5% peptone agar, read-out: Minimum inhibitory concentration
# [22] = test system: Enterobacter aerogenes ATCC 13048 (MS-1); assay: Antibacterial spectrum, agar plate dilution method; type: cell-based; conditions: Klebsiella aerogenes, ATCC13048, 0.5% peptone agar, read-out: Minimum inhibitory concentration
# [23] = test system: Bacillus polymyxa IAM 1210; assay: Antibacterial spectrum, agar plate dilution method; type: cell-based; conditions: Paenibacillus polymyxa, IAM1210, 0.5% peptone agar, read-out: Minimum inhibitory concentration
# [24] = test system: HeLa cell; assay: Anti-HeLa cell activity; type: cell-based; conditions: for Cells/plate: 72 hours after the addition
# Description: *The number of cells 72 hours after the addition of NK840218.
# [25] = test system: Escherichia coli K-12; assay: Antibacterial spectrum, agar plate dilution method; type: cell-based; conditions: K12, 0.5% peptone agar, read-out: Minimum inhibitory concentration
# [26] = test system: Bacillus subtilis ATCC 6633; assay: Antibacterial spectrum, agar plate dilution method; type: cell-based; conditions: ATCC6633, 0.5% peptone agar, read-out: Minimum inhibitory concentration
# [27] = test system: Salmonella enteritidis G14 (MS-1); assay: Antibacterial spectrum, agar plate dilution method; type: cell-based; conditions: Salmonella enterica, 0.5% peptone agar, read-out: Minimum inhibitory concentration
# [28] = test system: Micrococcus luteus ATCC 9341; assay: Antibacterial spectrum, agar plate dilution method; type: cell-based; conditions: ATCC9341, 0.5% peptone agar, read-out: Minimum inhibitory concentration
# [29] = Solubility in solvents; type: physicochemical
# Excerpt: In order to isolate the antibiotic of the present invention, the culturing broth is purified in a manner conventionally used in isolating a metabolite of a microorganism from its culturing broth. […] For example, the culturing broth is adjusted to a pH value of 3.5 to 6.5, preferably 4 to 4.5, adsorbed by powdery active carbon, washed with water and eluted with a 50% aqueous acetone and the active fraction thus obtained is concentrated and lyophilized to give a brown crude powder. Then this powder is dissolved in methanol and insoluble substances are removed. The soluble portion is dried, dissolved in water, adsorbed by an active carbon column, washed with water and subjected to acetone linear concentration gradient elution with water and 50% aqueous acetone. The obtained active fraction is concentrated and lyophilized. The pale brown powder containing NK84-0218 thus obtained is dissolved in a small amount of water and packed into an Avicel column. Then it is developed with an aqueous alcohol and eluted with increasing the water content stepwise. The active fractions thus obtained are combined, concentrated and lyophilized. Subsequently the obtained powder is dissolved in a small amount of water and packed into an SP Sephadex® C-25(Na^+) column previously equilibrated with 0.02M sodium chloride. The active fractions eluted with 0.02M sodium chloride are desalted on active carbon to give a colorless powder. The powder thus purified is treated with water or an aqueous alcohol to give NK84-0218 in the form of colorless needles. The titer during the cultivation is determined by plate cup assay with Bacillus subtilis PCI 219.
compound,measurement,setting,value
Nc1ncnc2c1ncn2C1OC(CO)C1CO (centres unmarked) [NK84-0218],MIC,[1],> 100 µg/mL
same,MIC,[2],> 100 µg/mL
same,MIC,[3],< 0.1 µg/mL
same,MIC,[4],1.56 µg/mL
same,MIC,[5],> 100 µg/mL
same,inhibiting the growth of gram-positive bacteria,[6],intense effects of inhibiting the growth
same,MIC,[7],> 100 µg/mL
same,MIC,[8],> 100 µg/mL
same,MIC,[9],> 100 µg/mL
same,MIC,[10],> 100 µg/mL
same,MIC,[11],6.25 µg/mL
same,effect on gram-negative bacteria,[12],no effect
same,MIC,[13],> 100 µg/mL
same,MIC,[14],6.25 µg/mL
same,MIC,[15],< 0.1 µg/mL
same,MIC,[16],> 100 µg/mL
same,MIC,[17],> 100 µg/mL
same,MIC,[18],< 0.1 µg/mL
same,acute toxicity compared with various known nucleoside antibiotics,[19]; i.v.,lower than those of various known nucleoside antibiotics
same,LD50,"[19]; mouse, in vivo, iv",≥ 100 mg/kg
same,antiviral activity (in words),[20],exhibits an antiviral activity
same,MIC,[21],> 100 µg/mL
same,MIC,[22],> 100 µg/mL
same,MIC,[23],< 0.1 µg/mL
same,Cells/plate,[24]; 0.39 μg/ml,14.35 × 10^5
same,Cells/plate,[24]; 1.56 μg/ml,14.64 × 10^5
same,Cells/plate,[24]; 6.25 μg/ml,13.91 × 10^5
same,Cells/plate,[24]; 25 μg/ml,13.47 × 10^5
same,Cells/plate,[24]; 100 μg/ml,2.78 × 10^5
same,inhibition at 0.39 µg/mL,"[24]; Homo sapiens, HeLa, 0.39 μg/ml, 72 hours, read-out: Inhibition ratio",3.58%
same,inhibition at 1.56 µg/mL,"[24]; Homo sapiens, HeLa, 1.56 μg/ml, 72 hours, read-out: Inhibition ratio",1.26%
same,inhibition at 6.25 µg/mL,"[24]; Homo sapiens, HeLa, 6.25 μg/ml, 72 hours, read-out: Inhibition ratio",6.94%
same,inhibition at 25 µg/mL,"[24]; Homo sapiens, HeLa, 25 μg/ml, 72 hours, read-out: Inhibition ratio",10.2%
same,inhibition at 100 µg/mL,"[24]; Homo sapiens, HeLa, 100 μg/ml, 72 hours, read-out: Inhibition ratio",93.4%
same,IC50,"[24]; Homo sapiens, HeLa cell, 72 hours",~47 µg/mL
same,MIC,[25],> 100 µg/mL
same,MIC,[26],< 0.1 µg/mL
same,MIC,[27],> 100 µg/mL
same,MIC,[28],3.12 µg/mL
same,Solubility,[29]; in dimethyl sulfoxide,soluble
same,Solubility,[29]; in ethanol,soluble
same,Solubility,[29]; in methanol,soluble
same,Solubility,"[29]; in other organic solvents such as propanol, acetone, ethyl acetate, ether and benzene",hardly or not soluble
same,Solubility,[29]; in water,soluble
